Test results: patent publication US20100075965A1, “PI3 KINASE INHIBITORS AND METHODS OF THEIR USE” (Novartis AG, priority 2006, published 2010)

How the values were obtained:
A2780 cells = experiment: Viability assay in A2780 (Cell Titer Glo); assay type: cell-based, human; settings: Homo sapiens; A2780 cells; read-out: A2780 Cell prolif. EC50
Summary of the method: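 EC50 values come from Cell Titer Glo luminescence after 72 hrs of compound exposure at 37° C, run in duplicate. A2780 cells were plated at 1,000 per well in DMEM with 10% FBS and dosed with 3-fold serial dilutions.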

PI3 K Alpha = PI3 K Alpha (Homo sapiens, UniProt P42336); experiment: PI3 kinase phosphorylation assays (homogenous solution phase, one step solid phase, ATP depletion/KinaseGlo); assay type: biochemical; settings: read-out: PI3K Alpha IC50
Chain of PI3 K Alpha (P42336 whole entry): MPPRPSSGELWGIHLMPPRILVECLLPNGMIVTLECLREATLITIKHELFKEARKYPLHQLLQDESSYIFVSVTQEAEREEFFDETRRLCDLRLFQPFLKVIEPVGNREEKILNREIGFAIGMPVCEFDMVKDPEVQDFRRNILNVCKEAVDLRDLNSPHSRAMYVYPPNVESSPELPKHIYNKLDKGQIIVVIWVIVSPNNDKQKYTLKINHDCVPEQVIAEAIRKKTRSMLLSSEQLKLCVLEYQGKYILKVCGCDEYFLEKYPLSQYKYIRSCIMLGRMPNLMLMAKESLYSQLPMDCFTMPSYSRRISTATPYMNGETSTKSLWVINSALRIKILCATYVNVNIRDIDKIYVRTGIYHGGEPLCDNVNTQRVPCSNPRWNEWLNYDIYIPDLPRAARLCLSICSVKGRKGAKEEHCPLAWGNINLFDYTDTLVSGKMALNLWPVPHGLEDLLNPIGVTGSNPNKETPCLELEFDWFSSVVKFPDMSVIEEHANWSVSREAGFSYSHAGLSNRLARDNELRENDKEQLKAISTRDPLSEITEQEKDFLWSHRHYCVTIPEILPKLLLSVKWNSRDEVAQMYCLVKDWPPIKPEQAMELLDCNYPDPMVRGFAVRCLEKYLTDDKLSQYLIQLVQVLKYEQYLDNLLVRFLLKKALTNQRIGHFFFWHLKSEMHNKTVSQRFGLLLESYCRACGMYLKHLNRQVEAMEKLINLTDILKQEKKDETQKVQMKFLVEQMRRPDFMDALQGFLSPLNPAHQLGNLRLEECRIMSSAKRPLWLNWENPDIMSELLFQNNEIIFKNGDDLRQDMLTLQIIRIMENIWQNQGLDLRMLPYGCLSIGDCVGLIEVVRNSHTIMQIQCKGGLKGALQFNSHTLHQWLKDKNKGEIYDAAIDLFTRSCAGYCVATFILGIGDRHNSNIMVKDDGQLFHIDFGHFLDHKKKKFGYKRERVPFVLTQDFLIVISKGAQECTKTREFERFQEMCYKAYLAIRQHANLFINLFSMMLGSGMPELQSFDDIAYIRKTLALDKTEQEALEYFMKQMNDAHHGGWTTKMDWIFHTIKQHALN
Chain of PI3 K Alpha (P27986 whole entry partner): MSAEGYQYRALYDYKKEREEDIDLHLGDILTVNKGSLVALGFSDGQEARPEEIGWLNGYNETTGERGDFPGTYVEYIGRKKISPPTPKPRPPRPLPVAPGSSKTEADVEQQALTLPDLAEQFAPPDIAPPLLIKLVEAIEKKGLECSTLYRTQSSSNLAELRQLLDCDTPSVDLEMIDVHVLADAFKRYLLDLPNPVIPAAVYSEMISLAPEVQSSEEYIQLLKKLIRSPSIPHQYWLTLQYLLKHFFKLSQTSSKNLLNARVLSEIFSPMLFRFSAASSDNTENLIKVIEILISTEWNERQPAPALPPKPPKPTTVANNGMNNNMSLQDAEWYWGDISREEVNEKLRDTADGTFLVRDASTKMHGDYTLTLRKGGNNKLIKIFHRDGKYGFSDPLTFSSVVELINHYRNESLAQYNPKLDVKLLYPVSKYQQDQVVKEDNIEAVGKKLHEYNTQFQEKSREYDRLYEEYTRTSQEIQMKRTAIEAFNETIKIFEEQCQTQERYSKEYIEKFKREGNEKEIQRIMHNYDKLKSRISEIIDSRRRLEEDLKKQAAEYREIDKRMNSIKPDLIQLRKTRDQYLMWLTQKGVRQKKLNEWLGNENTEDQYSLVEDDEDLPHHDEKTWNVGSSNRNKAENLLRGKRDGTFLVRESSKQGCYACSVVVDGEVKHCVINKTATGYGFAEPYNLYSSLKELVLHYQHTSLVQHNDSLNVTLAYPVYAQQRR

Row | EC50 (A2780 cells) [µM] | IC50 (PI3 K Alpha) [µM] | Structure (SMILES)
1 | < 10 | < 1 | COc1ccccc1-c1cc(-c2ccc3nc(NC(C)=O)cn3n2)cnc1N [Example 212, N-(6-(6-amino-5-(2-methoxyphenyl)pyridin-3-yl)imidazo[1,2-b]pyridazin-2-yl)acetamide]
2 | < 10 | < 1 | Nc1ncc(-c2ccc3nc(NC(=O)CO[C@@H]4CCNC4)cn3c2)cc1C(F)(F)F [Example 214, (R)-N-(6-(6-amino-5-(trifluoromethyl)pyridin-3-yl)imidazo[1,2-a]pyridin-2-yl)-2-(pyrrolidin-3-yloxy)acetamide]
3 | < 10 | < 1 | Nc1ncc(-c2ccc3nc(NC(=O)[C@H]4CCCCN4)cn3c2)cc1C(F)(F)F [Example 216, (R)-N-(6-(6-amino-5-(trifluoromethyl)pyridin-3-yl)imidazo[1,2-a]pyridin-2-yl)piperidine-2-carboxamide]
4 | < 10 | < 1 | Nc1ncc(-c2ccc3nc(NC(=O)COCc4ccccc4)cn3n2)cc1C(F)(F)F [Example 217, N-(6-(6-amino-5-(trifluoromethyl)pyridin-3-yl)imidazo[1,2-b]pyridazin-2-yl)-2-(benzyloxy) acetamide]
5 | < 10 | < 1 | NC(=O)Nc1cn2cc(-c3cnc(N)c(C(F)(F)F)c3)ccc2n1 [Example 219, 1-(6-(6-amino-5-(trifluoromethyl)pyridin-3-yl)imidazo[1,2-a]pyridin-2-yl)urea]
6 | < 10 | < 1 | CCN1CCC(OCC(=O)Nc2cn3cc(-c4cnc(N)c(C(F)(F)F)c4)ccc3n2)CC1 [Example 221, N-(6-(6-amino-5-(trifluoromethyl)yl)imidazo[1,2-a]pyridin-2-yl)-2-(1-ethylpiperidin-4-yloxy)acetamide]
7 | < 10 | < 1 | CC(=O)Nc1cn2cc(-c3cnc(N)c(Oc4ccc(N5CCN(C(C)=O)CC5)cc4)n3)ccc2n1 [Example 222, N-(6-(6-(4-(4-acetylpiperazin-1-yl)phenoxy)-5-aminopyrazin-2-yl)imidazo[1,2-a]pyridin-2-yl)acetamide]
8 | < 10 | < 1 | C[C@@H](N)C(=O)Nc1cn2nc(-c3cnc(N)c(C(F)(F)F)c3)ccc2n1 [Example 223, (R)-2-amino-N-(6-(6-amino-5-(trifluoromethyl)pyridin-3-yl)imidazo[1,2-b]pyridazin-2-yl)propanamide]
9 | < 10 | < 1 | Nc1ncc(-c2ccc3nc(NC(=O)N4CC[C@H](O)C4)cn3c2)cc1C(F)(F)F [Example 224, (S)-N-(6-(6-amino-5-(trifluoromethyl)pyridin-3-yl)imidazo[1,2-a]pyridin-2-yl)-3-hydroxy-pyrrolidine-1-carboxamide]
10 | < 10 | < 1 | Nc1ncc(-c2ccc3nc(NC(=O)c4cccc(Cl)c4)cn3c2)cc1C(F)(F)F [Example 225, N-(6-(6-amino-5-(trifluoromethyl)pyridin-3-yl)imidazo[1,2-a]pyridin-2-yl)-3-chlorobenzamide]
11 | < 10 | < 1 | CC(=O)Nc1cn2cc(-c3cnc(N)c(C)n3)ccc2n1 [Example 226, N-(6-(5-amino-6-methylpyrazin-2-yl)imidazo[1,2-a]pyridin-2-yl)acetamide]
12 | < 10 | < 1 | CCN1CC[C@@H](OCC(=O)Nc2cn3cc(-c4cnc(N)c(C(F)(F)F)c4)ccc3n2)C1 [Example 227, (R)-N-(6-(6-amino-5-(trifluoromethyl)pyridin-3-yl)imidazo[1,2-a]pyridin-2-yl)-2-(1-ethylpyrrolidn-3-yloxy)acetamide]
13 | < 10 | < 1 | Nc1ncc(-c2ccc3nc(NC(=O)[C@@H]4CCN4)cn3c2)cc1C(F)(F)F [Example 228, (S)-N-(6-(6-amino-5-(trifluoromethyl)pyridin-3-yl)imidazo[1,2-a]pyridin-2-yl)azetidine-2-carboxamide]
14 | < 10 | < 1 | Nc1ncc(-c2ccc3nc(NC(=O)C4CCN4)cn3c2)nc1OCC(F)(F)F (stereo not drawn) [Example 229, N-(6-(5-amino-6-(2,2,2-trifluoroethoxy)pyrazin-2-yl)imidazo[1,2-a]pyridin-2-yl)azetidine-2-carboxamide]
15 | < 10 | < 1 | CC(C)C(=O)Nc1cn2cc(-c3cnc(N)c(OCC(F)(F)F)n3)ccc2n1 [Example 230, N-(6-(5-amino-6-(2,2,2-trifluoroethoxy)pyrazin-2-yl)imidazo[1,2-a]pyridin-2-yl)isobutyramide]
16 | < 10 | < 1 | CC(C)(C)OC(=O)NCCC(=O)Nc1cn2nc(-c3cnc(N)c(C(F)(F)F)c3)ccc2n1 [Example 231, tert-butyl 3-(6-(6-amino-5-(trifluoromethyl)pyridin-3-yl)imidazo[1,2-b]pyridazin-2-ylamino)-3-oxopropyl-carbamate]
17 | < 10 | < 1 | Nc1ncc(-c2ccc3nc(NC(=O)N4CCC[C@H]4CO)cn3c2)cc1C(F)(F)F [Example 232, (S)-N-(6-(6-amino-5-(trifluoromethyl)pyridin-3-yl)imidazo[1,2-a]pyridin-2-yl)-2-(hydroxymethyl) pyrrolidine-1-carboxamide]

Row | EC50 (A2780 cells) [µM] | IC50 (PI3 K Alpha) [µM] | Structure (SMILES)
18 | < 10 | < 1 | Nc1ncc(-c2ccc3nc(NC(=O)[C@@H]4CCCCN4Cc4ccccc4)cn3c2)cc1C(F)(F)F [Example 233]
19 | < 10 | < 1 | CC(C)(C)OC(=O)N1CC(C(=O)Nc2cn3cc(-c4cnc(N)c(C(F)(F)F)c4)ccc3n2)C1 [Example 234, tert-butyl 3-(6-(6-amino-5-(trifluoromethyl)pyridin-3-yl)imidazo[1,2-a]pyridin-2-ylcarbamoyl) azetidine-1-carboxylate]
20 | < 10 | < 1 | CCC(=O)Nc1cn2cc(-c3cnc(N)c(C(F)(F)F)c3)ccc2n1 [Example 236, N-(6-(6-amino-5-(trifluoromethyl)pyridin-3-yl)imidazo[1,2-a]pyridin-2-yl)propionamide]
21 | < 10 | < 1 | CN(CC(=O)Nc1cn2nc(-c3cnc(N)c(C(F)(F)F)c3)ccc2n1)C(=O)OC(C)(C)C [Example 237, tert-butyl 2-(6-(6-amino-5-(trifluoromethyl)pyridin-3-yl)imidazo[1,2-b]pyridazin-2-ylamino)-2-oxoethyl(methyl) carbamate]
22 | < 10 | < 1 | Nc1ncc(-c2ccc3nc(NC(=O)CCCn4ccnc4)cn3c2)cc1C(F)(F)F [Example 238, N-(6-(6-amino-5-(trifluoromethyl)pyridin-3-yl)imidazo[1,2-a]pyridin-2-yl)-4-(1H-imidazol-1-yl)butanamide]
23 | < 10 | < 1 | C[C@H](N)C(=O)Nc1cn2nc(-c3cnc(N)c(C(F)(F)F)c3)ccc2n1 [Example 239, (S)-2-amino-N-(6-(6-amino-5-(trifluoromethyl)pyridin-3-yl)imidazo[1,2-b]pyridazin-2-yl)propanamide]
24 | < 10 | < 1 | CCN(CC)Cc1cc(-c2ccc3nc(NC(C)=O)cn3n2)cnc1N [Example 240, N-(6-(6-amino-5-((diethylamino)methyl)pyridin-3-yl)imidazo[1,2-b]pyridazin-2-yl)acetamide]
25 | < 10 | < 1 | CC(=O)Nc1cn2nc(-c3cnc(N)c(CN4CCCC4)c3)ccc2n1 [Example 242, N-(6-(6-amino-5-(pyrrolidin-1-ylmethyl)pyridin-3-yl)imidazo[1,2-b]pyridazin-2-yl)acetamide]
26 | < 10 | < 1 | CC(=O)Nc1nc2ccc(-c3cnc(N)c(C(F)(F)F)c3)cn2c1C(N)=O [Example 243, 2-acetamido-6-(6-amino-5-(trifluoromethyl)pyridin-3-yl)imidazo[1,2-a]pyridine-3-carboxamide]
27 | < 10 | < 1 | CN(CC(=O)Nc1cn2cc(-c3cnc(N)c(C(F)(F)F)c3)ccc2n1)C(=O)OC(C)(C)C [Example 244, tert-butyl 2-(6-(6-amino-5-(trifluoromethyl)pyridin-3-yl)imidazo[1,2-a]pyridin-2-ylamino)-2-oxoethyl(methyl) carbamate]
28 | < 10 | < 1 | N#Cc1cccc(C(=O)Nc2cn3cc(-c4cnc(N)c(C(F)(F)F)c4)ccc3n2)c1 [Example 245, N-(6-(6-amino-5-(trifluoromethyl)pyridin-3-yl)imidazo[1,2-a]pyridin-2-yl)-3-cyanobenzamide]
29 | < 10 | < 1 | NCCC(=O)Nc1cn2nc(-c3cnc(N)c(C(F)(F)F)c3)ccc2n1 [Example 246, 3-amino-N-(6-(6-amino-5-(trifluoromethyl)pyridin-3-yl)imidazo[1,2-b]pyridazin-2-yl)propanamide]
30 | < 10 | < 1 | CC(=O)Nc1nc2ccc(-c3cnc(N)c(C(F)(F)F)c3)cn2c1C#CCNC(=O)OC(C)(C)C [Example 247, tert-butyl 3-(2-acetamido-6-(6-amino-5-(trifluoromethyl)pyridin-3-yl)imidazo[1,2-a]pyridin-3-yl)prop-2-ynylcarbamate]
31 | < 10 | < 1 | CN(C)C1CCN(C(=O)Nc2cn3cc(-c4cnc(N)c(C(F)(F)F)c4)ccc3n2)C1 (stereo not drawn) [Example 248, N-(6-(6-amino-5-(trifluoromethyl)pyridin-3-yl)imidazo[1,2-a]pyridin-2-yl)-3-(dimethylamino) pyrrolidine-1-carboxamide]
32 | < 10 | < 1 | COCCOc1nc(-c2ccc3nc(NC(=O)C4CCN4C(C)=O)cn3c2)cnc1N (stereo not drawn) [Example 249, 1-acetyl-N-(6-(5-amino-6-(2-methoxyethoxy)pyrazin-2-yl)imidazo[1,2-a]pyridin-2-yl)azetidine-2-carboxamide]
33 | < 10 | < 1 | CC(C)(C)OC(=O)N1CCCCC1CCC(=O)Nc1cn2nc(-c3cnc(N)c(C(F)(F)F)c3)ccc2n1 (stereo not drawn) [Example 250, tert-butyl 2-(3-(6-(6-amino-5-(trifluoromethyl)pyridin-3-yl)imidazo[1,2-b]pyridazin-2-ylamino)-3-oxopropyl) piperidine-1-carboxylate]
